# Reference: patent US8796323B2, “Defensin-like molecules as novel antimicrobial agents” (University of Maryland, Baltimore, priority 2010, dated 2014)
# Test: Surface Plasmon Resonance binding of HNP1 peptides and Lipid II
# Conditions: ratio of Kd values
# Protocol: Short-chain water-soluble Lipid II containing a lipid tail of three isoprene units was generated and purified essentially as described in Breukink, E., et al., 2003, “Lipid II is an intrinsic component of the pore induced by nisin in bacterial membranes,” J Biol Chem 278:19898-19903.
# Typically, M. flavus vesicles (120 μmol lipid-Pi) were incubated together with 500 μmol UDP-GlcNAc, 500 μmol UDP-MurNAC-pentapeptide and 400 μmol farnesyl phosphate in 100 mM Tris-HCl pH 8.0, 5 mM MgCl2. The incubation lasted two hours at room temperature for 3-P. The synthesis of 3-Lipid II was followed using RP-8 reversed phase TLC (Merck) developed in 75% methanol. […]
# Surface Plasmon Resonance binding experiments were carried out on a BIAcore T100 system (BIAcore Inc., Piscataway, N.Y.) at 25° C. […] Association and dissociation were assessed for 300 and 600 second, respectively. […] Binding isotherms were analyzed with manufacturer-supplied software for BIAcore T100 and/or GraphPad Prism 4.0.
# The inventors used a Surface Plasmon Resonance (SPR) approach to determine the binding of HNP1 to Lipid II directly. Initial binding of L-HNP1, D-HNP1 and linear HNP1 to soluble Lipid II immobilized on the chip surface was determined. […]
substance,measurement,value
"HNP1: α-defensin Human Neutrophil Peptide 1, chemically synthesized and folded","affinity for Lipid II, L-HNP1 relative to D-HNP1",approximately five times higher affinity than the D-peptide
